Test results taken from patent US9163018B2, “Method of treatment of age-related macular degeneration (AMD)” (Prana Biotechnology Limited, priority 2006, dated 2015).

Columns and labels:
[1] = test system: Abeta in extract of post-mortem human AD brain tissue; assay: BAS: human brain amyloid solubilization assay; format: biochemical; details: max effect across the concentration range, referenced to baseline PBS
Description: Assay 5. Human Brain Amyloid Solubilization Assay
This assay was performed in order to assess the ability of a test compound to mobilise Aβ, as an example form of amyloid, from the insoluble to the soluble phase of an extract of tissue from post mortem human AD brain.
Up to 0.5 g of plaque-bearing cortex without meninges was homogenized using a DIAX 900 homogenizer (Hendolph and Co, Kelheim, Germany) or other suitable device for three 30-second periods at full speed in 2 ml of ice-cold phosphate-buffered saline, pH 7.4. To obtain the phosphate-buffered saline-extractable fraction, the homogenate was centrifuged at 100,000×g for 30 min and the supernatant removed. Alternatively, the tissue was freeze dried then pulverized to form a powder which was then weighed out into aliquots for extraction as above. Supernatant, either freeze-dried and resuspended or in unconcentrated form, was dissolved in 200 μl of Tris-Tricine sodium dodecyl sulfate (SDS) sample buffer pH 8.3 containing 8% SDS, 10% 2-mercaptoethanol. Aliquots (10 μl) were then boiled for 10 minutes before SDS-polyacrylamide gel electrophoresis. The insoluble fraction of the cortical samples was obtained by resuspending the initial pelleted sample in 1 ml of phosphate-buffered saline, A 50-μl aliquot of this suspension was then boiled in […] of sample buffer as above.
Tris-Tricine polyacrylamide gel electrophoresis was performed by loading appropriately diluted samples on to 10% to 20% gradient gels (Novex, San Diego, Calif.) followed by transfer on to 0.2-μm nitrocellulose membrane (Bio-Rad, Hercules, Calif.). Aβ was detected by using monoclonal antibody W02, which detects residues 5 through 8, […] (or another suitable antibody) in conjunction with horseradish peroxidase-conjugated rabbit anti-mouse IgG (Dako, Denmark), and visualized by using enhanced chemiluminescence (eg ECL; Amersham Life Science, Buckinghamshire, UK). Each gel included three lanes containing 0.5, 1, and 2 ng of synthetic Aβ40 (Keck Laboratory, Yale University, New Haven, Conn.) as reference standards.
Blot films were scanned by using a suitable imaging system such as the UVP gel documentation system, and densitometry performed using suitable software, eg UVP Labworks. The dynamic range of the film/scanner was determined by using a step tablet (No. 911ST600, Kodak, Rochester N.Y.), a calibrated film exposed by the manufacturer to provided steps of known increasing intensity. The quantifiable range of signal intensity for densitometric analysis of the mono- and dimeric Aβ bands was based on the comparison with a curve obtained by scanning and densitometry of the step tablet.
All samples were analyzed at least twice, and gel loadings and dilutions were adjusted to fit within the quantifiable region of the standard curve. The proportion of ‘soluble’ to ‘insoluble’ Aβ may be used to determine the efficiency of extraction of a test compound compared with the efficiency of a known compound. The insoluble Aβ being comprised of the pelletable fraction derived from the insoluble amyloid plaque from the above cortical samples and the soluble fraction comprising monomeric and/or oligomeric soluble Aβ.

[2] = target: T1, Abeta:Zn (25:50 μM) Synthetic Aggregations (Homo sapiens, UniProt P05067); assay: Disaggregation of Abeta:Zn synthetic aggregates (ThT fluorescence); format: biochemical; details: for Disaggregation % Aggregate reduction at 5 μM: 5 μM test compound; for EC50: Abeta:Zn 25:50 μM aggregates
T1 construct: PB Compound Mediated Dissolution of Aggregated Abeta 1-42; purchased Keck Laboratory, Yale University School of Medicine
T1 sequence (P05067 672-713 limits assumed): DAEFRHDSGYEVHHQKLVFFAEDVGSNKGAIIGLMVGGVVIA
Description: PB Compound Mediated Dissolution of Aggregated Abeta 1-42
Abeta1-42, is available from the Keck Laboratory, Yale University School of Medicine. PBS (pH 6.6): Sigma Cat# D-8662. Zn(ZnCl2): BDH Cat#100884E. (Dissolved in water in 1 mM concentration) DMSO: Ajax Cat#2225. Thioflavin T: Sigma Cat# T-3516. (Dissolved in water in 1 mM concentration)
By way of example of an amyloid composition, Abeta is dissolved in distilled water and peptide concentration is assessed by measured absorption at 214 nm in UV spectrometer. An aggregation reactive mixture (per one concentration of one testing compound) is set us as follows: Abeta: 25 μM, ZnCl2 50 μM, ThT 50 μM, PBS to make up to 500 μl. The tube is wrapped with foil and incubated at 37 degrees by rotation for 24 hours. A serial dilution of each test compound is made up in DMSO, for example: 100 μM, 500 μM, 1000 μM, 2500 μM and 5000 μM. The final concentrations are 1, 5, 10, 25 and 50 μM, 5 μl of each of these compounds is placed in a centrifuge tube and 5 μl of DMSO is added to both negative and positive control tubes. 495 μl of aggregates (after 24 hours incubation) is added to the centrifuge tube. The negative control is PBS plus ZnCl2 and ThT and DMSO. The positive control is aggregates plus DMSO. The tubes are incubated at 37 degrees for further 2 hours with rotation. Samples are measured for ThT fluorescence using an LS55 (Perkin Elmer) fluorimeter in a cuvette (500 μl volume). The excitation wavelength is 450 nm and the emission wavelength is 480 nm. Data are analyzed using graph pad prism program. The tested compounds included so called “PB” compounds.

Aβ 1-42 = target: T2, Aβ 1-42 (Homo sapiens, UniProt P05067); assay: Fluorometric H2O2 assay (inhibition of Abeta H2O2 production); format: biochemical; details: concentration required to inhibit 50% of Abeta H2O2 production; read-out: H2O2 IC50
T2 construct: The reaction solutions contained Aβ 1-42 at concentrations
T2 sequence (P05067 672-713 limits assumed): as above
Description: Assay 1. Fluorometric H2O2 Assay
A fluorometric assay was used to test the ability of a test compound to inhibit hydrogen peroxide generation by Aβ in the presence of copper based on dichlorofluoroscein diacetate (DCF; Molecular Probes, Eugene Oreg.). The DCF solution (5 mM) in 100% dimethyl sulphoxide (previously purged with argon for 2 hr at 20° C.) was deacetylated in the presence of 0.25M NaOH for 30 min and neutralized at pH 7.4 to a final concentration of 1 mM. Horseradish peroxidase (HRP) stock solution was prepared to 1 μM at pH 7.4. The reactions were carried out in PBS, pH 7.4 in a 96 well plate (total volume=250 μl/well). […] The reaction mixture was incubated at 37 C for 60 min. […] H2O2 concentration may be established by comparing fluorescence with the H2O2 standards, Inhibition of Aβ H2O2 production was assayed by including a given concentration of test compound(s) in the test wells.

[3] = test system: primary cortical neuronal cultured cells; assay: Test compound cytotoxicity, MTS assay, primary cortical neuronal cultures; format: cell-based, mouse; details: for Cytotox (% viable) Neuronal cells at 1 μM: 1 μM test compound; for Cytotox (% viable) Neuronal cells at 10 μM: 10 μM test compound
Description: Assay 2. Neurotoxicity Assays
Primary Cortical Neuronal Cultures
Media was then replaced with Neurobasal media (Invitrogen Life Technologies) and B27 supplements (Invitrogen Life Technologies). Cultures were maintained at 37° C. in 5% CO2. Prior to experimentation, the culture medium was replaced with Neurobasal media and B27 minus antioxidants (Invitrogen Life Technologies).
(§1) Assay 3. MTS Assay for Cell Viability
(§2) Cell viability is determined using the MTS assay. Culture medium is replaced with fresh neurobasal medium plus B27 supplements minus antioxidants. 1/10th volume MTS solution (Cell Titre 96 Aqueous One, Promega Corporation) and incubated at 37° C., 2 hrs. 200 microliter aliquots are measured with a spectrophotometer at 560 nm.
Assay 4. Assay for Test Compound Cytoxicity
Neuronal cortical cells were cultured for five days as per Assay 2 in NB media and B27 supplement.
On day six the test compounds were added to the neuronal cell cultures in NB media and B27 supplement minus antioxidants.
Test compounds were dissolved in 100% DMSO to a concentration of 2.5 mM (10 mM if excess compound was weighed out per vial—then diluted to 2.5 mM).
Test compounds were not added directly to cells, instead they were added to a 48 well ‘Drug Plate’ as comprised below:
The Drug Plate was incubated at 37° C. for 15 mins. 200 μl of each well was added in triplicate to the corresponding cell plate. The cell plate was incubated at 37 C, for 4 days.
On completion of the assay, 1/10 volume MTS was added per well of plate (ie 25 μl/250 μl). The plates were incubated at 37 C for 2 hrs, and then absorbance was read at 560 nm.

[4] = test system: M17 human neuroblastoma cells; assay: Cytotoxicity, M17 human neuroblastoma cells; format: cell-based; details: for Cytotox (% viable) M17 cells at 1 μM: 1 μM test compound; for Cytotox (% viable) M17 cells at 10 μM: 10 μM test compound
Description: as §1, §2

Row | Compound | BAS max effect [1] | Disaggregation % Aggregate reduction at 5 μM [2] | EC50 [2] | IC50 (Aβ 1-42) | Cytotox (% viable) Neuronal cells at 1 μM [3] | Cytotox (% viable) Neuronal cells at 10 μM [3] | Cytotox (% viable) M17 cells at 1 μM [4] | Cytotox (% viable) M17 cells at 10 μM [4]
1 | CN(C)c1ccc(/C=C/c2nc3ccccc3s2)cc1 [PB 985] | 265% | – | – | – | – | – | – | –
2 | COC(=O)c1nc(Cl)c2cccnc2c1O [PB 1045] | 166% | – | – | – | – | – | – | –
3 | Br.Oc1cccc2c(=S)n(Cc3ccccn3)cnc12 [PB 1113] | – | 25.5% | > 20000 nM | 3200 nM | 97% | 90% | – | –
4 | FC(F)(F)CSc1cccc2cccnc12 [PB 913] | 450% | – | – | 990 nM | 100% | 95% | – | –
5 | COc1ccc(-c2cc(Cl)c3cccnc3c2O)cc1 [PB 814] | 209% | – | – | < 1100 nM | 97% | 31% | – | –
6 | O=C(NCCc1ccccn1)c1ccc2cccc(O)c2n1 [PB 950] | 741% | – | – | 150 nM | 95% | 93% | – | –
7 | OC1=NN=CC2C=CC=NC12 (stereo not drawn) [PB 1044] | 212% | – | – | – | – | – | – | –
8 | Oc1cccc2nc3ccccc3nc12 [PB 1027] | 306% | – | – | – | – | – | – | –
9 | Oc1c(-c2ccccc2)cc(-c2ccccc2)c2cccnc12 [PB 809] | 146% | – | – | < 1800 nM | 97% | 26% | – | –
10 | C1CNCCSCCN1 [PB 942] | 220% | – | – | < 100 nM | – | – | – | –
11 | O=c1c(-c2ccc(Cl)cc2)cnc2c(O)cccn12 [PB 1069] | – | 34.8% | 11300 nM | 480 nM | 97% | 42% | 41.2% | 25.8%
12 | O=c1ccnc2c(O)cccn12 [PB 1048] | 257% | – | – | – | – | – | – | –
13 | Cc1ccc2c(c1)sc(-c1ccc(N(C)C)cc1)[n+]2C [PB 982] | 188% | – | – | – | – | – | – | –
14 | Cc1ccc2nc(-c3ccc(N(C)C)cc3)sc2c1 [PB 983] | 278% | – | – | – | – | – | – | –
15 | Cn1cnc2c(O)cccc21 [PB 1041] | 319% | – | – | – | – | – | – | –
16 | CCn1cnc2c(O)c(Cl)cc(Cl)c2c1=O [PB 1115] | – | 17% | > 20000 nM | 950 nM | 93% | 58% | 104.3% | 95.9%
17 | Nc1ccccc1NC(=O)c1cc(O)c2cccc(O)c2n1 [PB 986] | – | 28% | 18400 nM | 3600 nM | 98% | 82% | – | –
18 | CCN(CC)c1ccc2cc(-c3nc4ccccc4s3)c(=O)oc2c1 [PB 981] | 580% | – | – | – | – | – | – | –
19 | COC(=O)c1nc(O)c2cccnc2c1O [PB 1046] | 244% | – | – | – | – | – | – | –
20 | CCCCc1ccc2ccc3ccc(CCCC)nc3c2n1 [PB 847] | 271% | – | – | < 2500 nM | – | – | – | –
21 | Oc1c(I)cc(I)c2cccnc12 [PB 46] | – | 58.7% | 4100 nM | 400 nM | 91% | 95% | – | –
22 | O=c1[nH]cnc2c(O)cccc12 [PB 1049] | 237% | – | – | – | – | – | – | –
23 | Oc1cc2cccnc2c2cccnc12 [PB 1026] | 186% | – | – | 230 nM | – | – | – | –
24 | Oc1cccc2cc3ccccc3nc12 [PB 1043] | 175% | – | – | – | – | – | – | –
25 | CCN(CC)Cc1ccc2c(Cl)cc(Cl)c(O)c2n1.Cl [PB 1106] | – | 17.9% | 14200 nM | 400 nM | 74% | 70% | – | –
26 | O=C(Cn1cnc2c(O)cccc2c1=O)Nc1ccccn1 [PB 1182] | – | 24% | > 20000 nM | 590 nM | – | – | 110.1% | 98.2%
27 | CNCc1ccc2c(Cl)cc(Cl)c(O)c2n1.Cl [PB 1104] | – | 19.1% | > 20000 nM | 350 nM | 86% | 78% | – | –
28 | CCOC(=O)c1cnc2c(O)c(CC)ncc2c1 [PB 1116] | – | 16.8% | > 20000 nM | 1630 nM | 103% | 92% | – | –
29 | O=C(NC(=S)Nc1cccc2cccnc12)c1ccccc1 [PB 915] | 202% | – | – | 1900 nM | – | – | – | –
30 | O=C(O)c1ccccc1Nc1cccc(C(F)(F)F)c1 [PB 233] | 330% | – | – | > 10000 nM | – | – | – | –
